Structure (SMILES)	melting point [°C]
CC(=O)N1C(C)(C)CN(CCN2CC(C)(C)N(C(C)=O)C(C)(C)C2=O)C(=O)C1(C)C	180 to 183
CC1Cc2c(N)ccc(Cl)c2O1 (stereo not given)	70
CN1CCC(C2c3ccccc3CCc3cccnc32)CC1 (stereo not given)	111 to 114
Nc1cc2c(Nc3ccc(F)c(Br)c3)ncnc2cn1	269 to 271
CN(C)CC(O)C1=CC2(CCCC2)c2ccccc21 (stereo not given)	133 to 134
CC(C)(C)OC(=O)NCC(O)c1ccccc1 (stereo not given)	123 to 124
CCOCc1nc2c(N)nc3cc(OCCCc4cccnc4)ccc3c2n1CC(C)(C)O	160 to 161
CNC(=O)c1cccnc1N	140 to 142
O=C(O)CCCNC(=O)CCCCC1CCSS1 (stereo not given)	56 to 58
CCCN1C(=O)N2CCN=C2c2[nH]cnc21	283 to 285
COc1ccc(-c2nc3ccc(C=Cc4ccc5nc(-c6ccc(OC)cc6)oc5c4)cc3o2)cc1	162
NS(=O)(=O)c1cc2c(s1)CCC(O)C2 (stereo not given)	176 to 179
COc1cc(C(=O)N2CCN(C(=O)OC(C)(C)C)C(CO)C2)cc(OC)c1OC (stereo not given)	119 to 120
CC(=O)c1ccc(S(=O)(=O)Nc2nnn[nH]2)cc1	150 to 151
O=C(C(=C1NCCCS1)[N+](=O)[O-])c1ccccc1	137 to 140
CCOC(=O)c1c(C(F)F)nc(C(F)(F)F)c(C(=O)OCC)c1Cl	35 to 40
NC1CCCN(c2ncc3ncnc(Nc4ccc(F)c(Cl)c4)c3n2)CC1 (stereo not given)	122 to 124
CC(C)(C1CCCCC1)C(NC(=O)c1ccc(Cl)cc1)NC(=NC#N)Nc1cccnc1 (stereo not given)	181 to 183
Nc1nsc(Nc2c(Cl)cccc2Cl)n1	178 to 179
O=C1C2CCCN2C(=O)N1c1ccc([N+](=O)[O-])c2ccccc12 (stereo not given)	215 to 217
COC1=CC(O)(SC(=O)N(C)C)C([N+](=O)[O-])C=C1 (stereo not given)	101
OC1CSC(Oc2cccnc2-c2ccoc2)C(O)C1O (stereo not given)	128
[N-]=[N+]=NCCc1ccc(C(N)=O)s1	104 to 105
COc1nc(NC(=O)NS(=O)(=O)c2ccccc2OC(F)F)nc(N(C)C)n1	171 to 172
CSCC[C@@H](NC(=O)[C@H](Cc1ccc(O)cc1)NC(=O)OC(C)(C)C)C(=O)NCC(=O)Oc1c(Cl)c(Cl)c(Cl)c(Cl)c1Cl	175 to 176
Cn1ncnc1COc1nc2c(cnn2-c2ccccc2)cc1C(C)(C)C	143 to 145

Structure (SMILES)	melting point [°C]
CN(C(=O)Nc1nc(OCC(F)(F)F)cc(OCC(F)(F)F)c1F)c1ccc(Br)cc1	89 to 90
CN1Cc2c(-c3noc(C4CC4)n3)ncn2-c2ccccc2C1=O	179 to 181
O=C(Nc1ccc(F)nc1)C1CC1	116 to 117
COC(=O)c1nc(-c2ccc(Cl)c(F)c2F)nc(N)c1Br	175 to 178
CO/N=C(\C(=O)OC)c1csc(O)n1	97 to 98
Fc1ccc(Nc2nc(Cl)nc(NN=Cc3ccc(OC(F)(F)F)cc3)n2)cc1C(F)(F)F	109 to 111
COc1ccc2c(c1)CCC([C@@H]1CC[C@H](O)[C@@]1(C)CCO)C2 (stereo not given in full)	151 to 153
CC(C)(C)OC(=O)C1CCCN1C(=O)c1ccc2c(Cl)cnc(Cl)c2c1 (racemic)	144 to 146
CN(C)c1nc(C(F)(F)F)cc(=O)o1	79
CSc1ccc(Nc2cscc2C#N)c([N+](=O)[O-])c1	167 to 169
CC(CC(F)(F)C(F)(F)C(F)(F)C(F)(F)C(F)(F)C(F)(F)CC(C)C(=O)O)C(=O)O (stereo not given)	150 to 151
N#CC(NC(=O)C(F)(F)C(F)(F)C(F)(F)F)c1ccc(Cl)cc1 (stereo not given)	93 to 95
COc1cc2c(cc1F)C(=O)C(=O)N2	260
CC(=O)OC1(C(=O)CO)CCC2C3CCC4=CC(=O)C=CC4(C)C3C(O)CC21C (stereo not given)	223 to 224
C/C(=N\O)c1cccc(NC(=O)NCC(=O)N(CC(=O)N(C)c2ccccc2)c2ccccc2)c1	170
Fc1ccc(Nc2ncnc3cnc(NC4CCC(N5CCCC5)CC4)nc23)cc1Cl (stereo not given)	192 to 195
Cc1noc2ncnc(NCCC(C)C)c12	133
CCCCNCCCCCCCCSc1nc(-c2ccccc2)c(-c2ccccc2)[nH]1	75 to 78
CCCC[N+]([O-])=Cc1ccc(OCc2ccccc2)c(OC)c1	81.2
CC1c2ccccc2CCC1CC#N (stereo not given)	< 20
O=C(c1ccc(Nc2ccnc3cc(C(F)(F)F)ccc23)cc1)N1CCN(c2ncccn2)CC1	246 to 248
CN(CC[C@H]1CC[C@H](C(=O)O)CC1)c1nccc(C(F)(F)F)n1	110 to 112
Cc1cc2occc2c(N2CCN(CC[C@H]3CC[C@H](NC(=O)CC4CCOCC4)CC3)CC2)n1	212
COc1cc(C(=O)N[C@H]2CCNC2)ccc1Nc1ncc2c(n1)N(C1CCCCC1)CC(F)(F)C(=O)N2C	195 to 198
COC(=O)N(C(=O)Cl)c1ccc(OC(F)(F)F)cc1	97 to 99
O=C(NC1CCN(Cc2ccccc2)C1)C12CC3CC(CC(C3)C1)C2 (stereo not given)	130 to 132

The next lines start with the values.

melting point [°C]	Structure (SMILES)
193 to 197	Cc1cc(O)cc(C)c1N=Cc1ccc(O)cc1O
128 to 131	COc1ccc(CNc2nnc(N3CCC(CO)CC3)c3ccc(Cl)cc23)cc1Cl
118 to 120	COc1ccc(S(=O)(=O)Nc2ccc([C@@H](C)C(N)=O)cc2)cc1
105 to 107	OC1(c2ccc3c(c2)OCO3)C(c2ccc(Cl)cc2)SC2=NCCCCN21 (stereo not given)
53 to 54	Cc1cccc(C(=O)c2ccc(F)cc2)n1
252 to 255	COc1ccc2[nH]c3c(c2c1)C[C@@]1(C)C(=O)N(CCN2CCCC2)C(=O)N1[C@@H]3c1cccc(O)c1 (racemic)
169 to 170	O=C(OCc1ccccc1)c1cc2c3ccccc3n(Cc3ccccc3)c2cn1
132	Cc1cccc(CNc2ncccc2[N+](=O)[O-])n1
218 to 221	CC(=O)c1ccc(-c2nn(C(C)c3oc4ccccc4c(=O)c3-c3cccc(F)c3)c3ncnc(N)c23)cc1 (stereo not given)
228 to 230	C#CCOc1ccc(C(=O)C=Cc2c[nH]c3ccccc23)c(O)c1
71 to 72	CCCNC(=O)Oc1ccc(C(O)(CC)c2ccc(Cl)cc2)cc1 (stereo not given)
141 to 142	CCOc1cccc(CC(=O)O)c1OCCCc1cn(-c2ccc(C(F)(F)F)cn2)nc1C(C)C
225	O=C1CNc2ncc(I)cc2N1Cc1ccccc1
166 to 168	CC(=O)n1nc(C(=O)NC2CN(C)CCN(Cc3ccccc3)C2)c2ccccc21 (stereo not given)
126 to 127	O=[N+]([O-])c1ccc(NS(=O)(=O)c2cccc(C(F)(F)F)c2)c(Cl)c1
179	COc1ccc(-c2nc(S(=O)(=O)c3cccs3)[nH]c2-c2ccc(OC)cc2)cc1
160	CN(C(=O)C(F)(F)F)c1ccc(C2=NC[C@@H](OC(=O)Nc3ccccc3)[C@H](c3ccccc3)O2)cc1 (racemic)
222	COc1ccc2ccc(N3C(=O)C4=C(SCCO4)C3O)nc2n1 (stereo not given)
204 to 206	Cc1oc(-c2ccccc2)nc1CCOc1ccc(C[C@H](NC(=O)C=Cc2ccc(F)c(F)c2)C(=O)O)cc1
183 to 185	Cc1cccc2c1C(=O)c1cc(CC(=O)O)ccc1OC2
85 to 87.5	CC(C(=O)C=CC1C(OC(=O)c2ccccc2)CC2OC(=O)CC21)C1C=CCC1 (mixture of isomers)
181 to 185	CC(=O)COc1ccc2cc(S(N)(=O)=O)sc2c1
154 to 157	CN(C)C1CCN(S(=O)(=O)c2cc(C#N)ccc2Oc2cc(F)ccc2F)CC1
103 to 105	CCCCOc1cc(CCC(=O)O)ccc1-c1cccc(CN(C)C(=O)c2ccccc2)c1

melting point [°C]	Structure (SMILES)
110	CC(C)Oc1ccc(-c2nc(=O)c3ccccc3s2)cn1
206	O=C(Nc1cccc(Nc2nc(-c3cccnc3)cs2)c1)c1ccc(/C=C/ONO)s1
50 to 52	CCOC(C)O[C@H]1C(=O)N(C(=O)Oc2ccccc2)[C@H]1c1ccccc1 (stereo not given in full)
257 to 258	Cc1nc2c(Cl)c(NC(=O)Cc3ccc(Cl)cc3Cl)ccc2s1
284 to 286	Cc1cc(S(=O)(=O)O)c(NC(=O)Nc2cc3ccccc3[nH]2)cc1Cl
79 to 80	CCOC(=O)c1ccc2c3ccccc3n(Cc3ccccc3)c2c1C
72 to 73	COc1ccc(C(=O)c2ccccc2C)cc1C
258	CCCn1c(=O)nc2sc3ccccc3nc-2c1=O
152 to 155	Cc1c(NC(=O)c2ccc(OCC3CC3)cc2)ccc2cc(CN3CCC(C)(O)CC3)n(C)c12
165	COc1ccc(C(=O)C(=O)c2ccc(-c3ccc(F)cc3)s2)cc1C
203 to 205	Cc1cc2c([nH]1)CC(c1ccccc1)CC2=O (stereo not given)
116 to 120	CC(=O)c1cc2cccc(OC3SCC(O)C(O)C3O)c2o1 (stereo not given)
101 to 102	CCOC(=O)c1ccc(C(=O)N(C)C)cc1S(=O)(=O)NC(C)(C)C
144 to 145	CC(C)(C)c1nc(-c2ccc(F)cc2)c(-c2ccc(S(C)(=O)=O)cc2)s1
240 to 241	COC(=O)c1c(C(=O)OC)c2n(c1C)Cc1c(c3ccccc3n1C)C2
211 to 213	Cc1cncnc1Nc1ccc(C(=O)CC2CCN(Cc3ccccc3)CC2)cc1
106 to 107	C=C(C)CN1C(=O)c2ccccc2Oc2ncccc21
102 to 105	CCNC(=O)NC[C@H](O)c1cccc(O)c1
136	O=C(NC(Cc1ccccc1)C(=O)C(F)F)c1ccccc1 (stereo not given)
170 to 172	COC(=O)c1cc(Nc2ccc(C)cc2)c(Nc2ccc(C)cc2)cc1C(=O)OC
198 to 200	O=C(Nc1nc(Cl)cc(Cl)n1)NS(=O)(=O)c1cccc2cccnc12
173	CCOC(=O)c1c(O)c2ccccc2[nH]c1=O
164 to 165	CN(CCOc1ccc(CC(Oc2ccc(Cl)cc2)C(=O)O)cc1)c1nc2ccccc2o1 (stereo not given)
91 to 93	COC(=O)C1Cc2c(ncn2Cc2ccccc2)CN1Cc1ccccc1 (stereo not given)

Reference: a melting point compilation (Tetko et al.; mined from patent text by program, amines drawn as free bases though some values may be those of a salt)
